Assay results published in US10131652B2, “Pyrimidinyloxy benzene derivatives as herbicides” (E. I. DU PONT DE NEMOURS AND COMPANY, priority 2014, dated 2018).
Where two headings read alike, the source gives them in different places.

Assays:
Experiment in all cases: Test D pre-/postemergence plant response
Format in all cases: in vivo
[1] = test system: soybean (Glycine max); settings: Glycine max; for plant injury at 8 g/ha: 8 g ai/ha; for plant injury at 16 g/ha: 16 g ai/ha; for plant injury at 31 g/ha: 31 g ai/ha; for plant injury at 62 g/ha: 62 g ai/ha
Outline: (§1)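 Plants are held in a greenhouse 13 to 15 days after spraying, then injury is rated by eye relative to controls on a 0 to 100 scale. Treatments are preemergence on freshly sown loam/sand pots or postemergence at 1- to 4-leaf stage in peat-based medium; surfactant-containing solvent formulation.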

[2] = test system: pigweed (Amaranthus retroflexus); settings: Amaranthus retroflexus; for pest or weed control at 8 g/ha: 8 g ai/ha; for pest or weed control at 16 g/ha: 16 g ai/ha; for pest or weed control at 31 g/ha: 31 g ai/ha; for pest or weed control at 62 g/ha: 62 g ai/ha
Outline: as §1

[3] = test system: morningglory (Ipomoea coccinea); settings: Ipomoea; for pest or weed control at 8 g/ha: 8 g ai/ha; for pest or weed control at 16 g/ha: 16 g ai/ha; for pest or weed control at 31 g/ha: 31 g ai/ha; for pest or weed control at 62 g/ha: 62 g ai/ha
Outline: as §1

[4] = test system: lambsquarters (Chenopodium album); settings: Chenopodium album; for pest or weed control at 8 g/ha: 8 g ai/ha; for pest or weed control at 16 g/ha: 16 g ai/ha; for pest or weed control at 31 g/ha: 31 g ai/ha; for pest or weed control at 62 g/ha: 62 g ai/ha
Outline: as §1

[5] = test system: giant foxtail (Setaria faberii); settings: Setaria faberi; for pest or weed control at 8 g/ha: 8 g ai/ha; for pest or weed control at 16 g/ha: 16 g ai/ha; for pest or weed control at 31 g/ha: 31 g ai/ha; for pest or weed control at 62 g/ha: 62 g ai/ha
Outline: as §1

[6] = test system: corn (Zea mays); settings: Zea mays; for Corn plant response rating (crop injury, 0 = no effect, 100 = complete kill) at 62 g/ha: 62 g ai/ha
Outline: as §1

[7] = post-emergence, Postemergence, scale 0 to 100 (0 no effect, 100 complete control), read-out: Soybean plant response rating
[8] = pre-emergence, Preemergence, scale 0 to 100 (0 no effect, 100 complete control), read-out: Plant response rating, Soybean
[9] = post-emergence, Postemergence, scale 0 to 100 (0 no effect, 100 complete control), read-out: Pigweed plant response rating
[10] = pre-emergence, Preemergence, scale 0 to 100 (0 no effect, 100 complete control), read-out: Plant response rating, Pigweed
[11] = post-emergence, Postemergence, scale 0 to 100 (0 no effect, 100 complete control), read-out: Morningglory plant response rating
[12] = pre-emergence, Preemergence, scale 0 to 100 (0 no effect, 100 complete control), read-out: Plant response rating, Morningglory
[13] = post-emergence, Postemergence, scale 0 to 100 (0 no effect, 100 complete control), read-out: Lambsquarters plant response rating
[14] = pre-emergence, Preemergence, scale 0 to 100 (0 no effect, 100 complete control), read-out: Plant response rating, Lambsquarters
[15] = post-emergence, Postemergence, scale 0 to 100 (0 no effect, 100 complete control), read-out: Foxtail, Giant plant response rating
[16] = pre-emergence, Preemergence, scale 0 to 100 (0 no effect, 100 complete control), read-out: Plant response rating, Foxtail, Giant

SMILES: FC(F)c1cc(-c2ccccc2Oc2ncc(Cl)cn2)no1 [Compound 35, 5-chloro-2-[2-[5-(difluoromethyl)-3-isoxazolyl]phenoxy]pyrimidine]
- plant injury at 8 g/ha ([1]; post-emergence, Postemergence, read-out: Plant response rating (scale 0 to 100), Soybean): 40%
- plant injury at 16 g/ha [1, 7]: 65%
- plant injury at 31 g/ha [1, 7]: 80%
- plant injury at 62 g/ha ([1]; post-emergence, Postemergence, scale 0 to 100, 0 no effect, 100 complete control, read-out: Plant response rating, Soybean): 95%
- plant injury at 8 g/ha [1, 8]: 10%
- plant injury at 16 g/ha [1, 8]: 30%
- plant injury at 31 g/ha [1, 8]: 60%
- plant injury at 62 g/ha [1, 8]: 85%
- pest or weed control at 8 g/ha ([2]; post-emergence, Postemergence, read-out: Plant response rating (scale 0 to 100), Pigweed): 80%
- pest or weed control at 16 g/ha [2, 9]: 80%
- pest or weed control at 31 g/ha [2, 9]: 90%
- pest or weed control at 62 g/ha ([2]; post-emergence, Postemergence, scale 0 to 100, 0 no effect, 100 complete control, read-out: Plant response rating, Pigweed): 95%
- pest or weed control at 8 g/ha [2, 10]: 100%
- pest or weed control at 16 g/ha [2, 10]: 100%
- pest or weed control at 31 g/ha [2, 10]: 100%
- pest or weed control at 62 g/ha [2, 10]: 100%
- pest or weed control at 8 g/ha ([3]; post-emergence, Postemergence, read-out: Plant response rating (scale 0 to 100), Morningglory): 25%
- pest or weed control at 16 g/ha [3, 11]: 60%
- pest or weed control at 31 g/ha [3, 11]: 85%
- pest or weed control at 62 g/ha ([3]; post-emergence, Postemergence, scale 0 to 100, 0 no effect, 100 complete control, read-out: Plant response rating, Morningglory): 98%
- pest or weed control at 8 g/ha [3, 12]: 0%
- pest or weed control at 16 g/ha [3, 12]: 0%
- pest or weed control at 31 g/ha [3, 12]: 55%
- pest or weed control at 62 g/ha [3, 12]: 90%
- pest or weed control at 8 g/ha ([4]; post-emergence, Postemergence, read-out: Plant response rating (scale 0 to 100), Lambsquarters): 75%
- pest or weed control at 16 g/ha [4, 13]: 80%
- pest or weed control at 31 g/ha [4, 13]: 85%
- pest or weed control at 62 g/ha ([4]; post-emergence, Postemergence, scale 0 to 100, 0 no effect, 100 complete control, read-out: Plant response rating, Lambsquarters): 95%
- pest or weed control at 8 g/ha [4, 14]: 100%
- pest or weed control at 16 g/ha [4, 14]: 100%
- pest or weed control at 31 g/ha [4, 14]: 98%
- pest or weed control at 62 g/ha [4, 14]: 100%
- pest or weed control at 8 g/ha ([5]; post-emergence, Postemergence, read-out: Plant response rating (scale 0 to 100), Foxtail, Giant): 5%
- pest or weed control at 16 g/ha [5, 15]: 5%
- pest or weed control at 31 g/ha [5, 15]: 10%
- pest or weed control at 62 g/ha ([5]; post-emergence, Postemergence, scale 0 to 100, 0 no effect, 100 complete control, read-out: Plant response rating, Foxtail, Giant): 15%
- pest or weed control at 8 g/ha [5, 16]: 70%
- pest or weed control at 16 g/ha [5, 16]: 90%
- pest or weed control at 31 g/ha [5, 16]: 98%
- pest or weed control at 62 g/ha [5, 16]: 100%
- plant injury at 8 g/ha ([6]; post-emergence, Postemergence, 8 g ai/ha, read-out: Plant response rating (scale 0 to 100), Corn): 5%
- plant injury at 16 g/ha ([6]; post-emergence, Postemergence, 16 g ai/ha, scale 0 to 100 (0 no effect, 100 complete control), read-out: Corn plant response rating): 5%
- plant injury at 31 g/ha ([6]; post-emergence, Postemergence, 31 g ai/ha, scale 0 to 100 (0 no effect, 100 complete control), read-out: Corn plant response rating): 10%
- Corn plant response rating (crop injury, 0 = no effect, 100 = complete kill) at 62 g/ha ([6]; post-emergence, Postemergence, scale 0 to 100, 0 no effect, 100 complete control): 20%
- Corn plant response rating (crop injury, 0 = no effect, 100 = complete kill) at 8 g/ha ([6]; pre-emergence, Preemergence, 8 g ai/ha, scale 0 to 100 (0 no effect, 100 complete control)): 0%
- Corn plant response rating (crop injury, 0 = no effect, 100 = complete kill) at 16 g/ha ([6]; pre-emergence, Preemergence, 16 g ai/ha, scale 0 to 100 (0 no effect, 100 complete control)): 0%
- Corn plant response rating (crop injury, 0 = no effect, 100 = complete kill) at 31 g/ha ([6]; pre-emergence, Preemergence, 31 g ai/ha, scale 0 to 100 (0 no effect, 100 complete control)): 0%
- Corn plant response rating (crop injury, 0 = no effect, 100 = complete kill) at 62 g/ha ([6]; pre-emergence, Preemergence, scale 0 to 100 (0 no effect, 100 complete control)): 15%
